The target in one data set is T1, OATP1B1 (Homo sapiens, UniProt Q9Y6L6).
T1 sequence (Q9Y6L6 1-691): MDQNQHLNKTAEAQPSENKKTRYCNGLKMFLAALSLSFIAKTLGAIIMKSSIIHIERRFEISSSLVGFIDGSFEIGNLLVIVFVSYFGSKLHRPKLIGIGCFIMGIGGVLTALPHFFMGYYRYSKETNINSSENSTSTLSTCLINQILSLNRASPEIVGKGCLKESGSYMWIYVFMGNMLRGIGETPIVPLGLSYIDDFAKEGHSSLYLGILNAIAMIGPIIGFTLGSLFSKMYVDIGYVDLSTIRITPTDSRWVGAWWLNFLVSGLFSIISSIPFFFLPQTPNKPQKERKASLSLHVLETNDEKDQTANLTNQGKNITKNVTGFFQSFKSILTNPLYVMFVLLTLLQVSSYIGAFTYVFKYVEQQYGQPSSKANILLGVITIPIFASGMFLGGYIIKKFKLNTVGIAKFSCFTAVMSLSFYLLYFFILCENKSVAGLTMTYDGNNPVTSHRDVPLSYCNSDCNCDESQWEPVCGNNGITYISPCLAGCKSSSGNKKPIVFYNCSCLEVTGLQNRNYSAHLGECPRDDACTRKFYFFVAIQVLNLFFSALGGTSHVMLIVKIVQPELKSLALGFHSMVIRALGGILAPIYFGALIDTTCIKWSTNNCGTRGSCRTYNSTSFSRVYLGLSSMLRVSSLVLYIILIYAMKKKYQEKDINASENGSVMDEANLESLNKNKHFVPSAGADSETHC
Description: Transporter systems in vitro: OATP1B1. Format: in vitro ADME. The note with it: clinically relevant concentrations.

Data set [1] concerns New Zealand White rabbits. Put plainly: Pilot prenatal developmental toxicity study in New Zealand White rabbits with non-pregnant dose range finding phase (Example 2). The protocol:
The study was conducted in two phases: Phase A was a dose range finding tolerance study with non-pregnant rabbits, and Phase B was the pilot developmental toxicity study.
All fetuses were given the appropriate external examination.

A further data set deals with T2, UGT1A1 (Homo sapiens, UniProt P22309).
T2 sequence (P22309 26-533): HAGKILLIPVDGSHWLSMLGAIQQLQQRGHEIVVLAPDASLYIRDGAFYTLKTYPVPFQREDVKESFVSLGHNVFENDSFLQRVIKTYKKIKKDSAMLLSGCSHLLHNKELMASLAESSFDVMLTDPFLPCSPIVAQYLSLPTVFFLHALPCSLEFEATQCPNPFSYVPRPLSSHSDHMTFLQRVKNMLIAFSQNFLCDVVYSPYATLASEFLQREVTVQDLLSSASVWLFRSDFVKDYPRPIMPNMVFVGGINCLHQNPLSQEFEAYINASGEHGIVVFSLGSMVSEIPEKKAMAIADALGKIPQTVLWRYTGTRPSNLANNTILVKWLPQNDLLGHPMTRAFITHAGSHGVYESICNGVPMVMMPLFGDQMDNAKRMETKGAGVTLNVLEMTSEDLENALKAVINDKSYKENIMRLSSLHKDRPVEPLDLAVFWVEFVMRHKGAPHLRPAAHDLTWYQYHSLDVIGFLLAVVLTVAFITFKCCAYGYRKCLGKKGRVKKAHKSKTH
Description: Enzyme systems in vitro: UGT1A1. The data set is classed as in vitro ADME.

A further data set deals with T3, BCRP (Homo sapiens, UniProt Q9UNQ0).
T3 sequence (Q9UNQ0 1-655): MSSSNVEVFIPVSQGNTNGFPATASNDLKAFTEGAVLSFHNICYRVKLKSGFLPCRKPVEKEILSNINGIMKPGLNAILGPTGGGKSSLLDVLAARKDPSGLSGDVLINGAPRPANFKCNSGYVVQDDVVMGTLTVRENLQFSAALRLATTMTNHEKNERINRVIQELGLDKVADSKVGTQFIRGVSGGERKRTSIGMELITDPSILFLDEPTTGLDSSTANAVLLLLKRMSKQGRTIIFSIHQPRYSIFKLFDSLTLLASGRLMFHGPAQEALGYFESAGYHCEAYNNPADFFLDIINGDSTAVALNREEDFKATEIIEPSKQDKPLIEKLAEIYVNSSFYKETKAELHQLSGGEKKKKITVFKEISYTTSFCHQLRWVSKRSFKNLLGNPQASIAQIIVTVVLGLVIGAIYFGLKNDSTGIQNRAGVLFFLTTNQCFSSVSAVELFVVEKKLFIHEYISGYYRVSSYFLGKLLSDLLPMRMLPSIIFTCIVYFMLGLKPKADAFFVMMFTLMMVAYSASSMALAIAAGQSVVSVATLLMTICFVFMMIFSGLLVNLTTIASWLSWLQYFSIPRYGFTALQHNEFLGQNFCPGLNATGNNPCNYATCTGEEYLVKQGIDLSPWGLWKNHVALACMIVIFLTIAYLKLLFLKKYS
Put plainly: Transporter systems in vitro: BCRP. To be noted: clinically relevant concentrations. Format: in vitro ADME.

A further data set has as its system rat bone marrow. Put plainly: in vivo rat bone marrow micronucleus assay.
Data set [2] is described as follows: Toxicokinetics in pregnant Sprague-Dawley rats (Example 1). The data set is classed as in vivo, rat. To be noted: female, Sprague-Dawley, rat, in vivo, po, 25 mg base/kg/day.
Another data set addresses T4, UGT1A9 (Homo sapiens, UniProt O60656).
T4 sequence (O60656 26-530): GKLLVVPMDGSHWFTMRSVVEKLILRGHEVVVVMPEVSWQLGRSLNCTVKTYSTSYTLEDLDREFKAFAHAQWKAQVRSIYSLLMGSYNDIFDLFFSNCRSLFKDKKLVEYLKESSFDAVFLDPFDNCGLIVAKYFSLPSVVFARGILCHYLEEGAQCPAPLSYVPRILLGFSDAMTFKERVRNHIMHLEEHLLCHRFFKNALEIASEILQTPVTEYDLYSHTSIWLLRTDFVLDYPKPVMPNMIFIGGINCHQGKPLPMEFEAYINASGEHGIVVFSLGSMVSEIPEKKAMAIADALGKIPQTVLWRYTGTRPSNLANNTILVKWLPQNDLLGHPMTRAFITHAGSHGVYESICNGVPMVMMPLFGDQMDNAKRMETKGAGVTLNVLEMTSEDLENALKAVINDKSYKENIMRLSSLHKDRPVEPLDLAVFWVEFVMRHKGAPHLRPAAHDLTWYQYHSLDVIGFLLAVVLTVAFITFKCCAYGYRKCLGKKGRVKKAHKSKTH
Description: Enzyme systems in vitro: UGT1A9. The data set is classed as in vitro ADME.

Turning to `CC(C)NC(=O)COc1cccc(-c2nc(Nc3ccc4[nH]ncc4c3)c3ccccc3n2)c1` [belumosudil, 2-{3-[4-(1H-indazol-5-ylamino)-2-quinazolinyl]phenoxy}-N-(propan-2-yl) acetamide], the OATP1B1 inhibition result on OATP1B1 is listed as “inhibits”. Further, the maternal toxicity entry in data set [1] (25 or 50 mg base/kg/day, GD 6-18) was “no toxicologically relevant maternal toxicity was observed”. Further, the maternal response result in data set [1] (100 and 250 mg base/kg/day, dose-dependent) is reported as “reduced body weight gain/loss, decreased food consumption, clinical signs”. In addition, in data set [1] (Phase A, 300 and 400 mg base/kg/day), the treatment-related effects result was “slight body weight losses and decreased food consumption”. The “embryo or fetal toxicity” value in data set [1] (Phase B, any dose level (25-250 mg base/kg/day)) is given as “no treatment-related embryo or fetal toxicity was apparent”. Besides, in data set [1] (pregnant rabbits), the “NOAEL for developmental toxicity” value was found to be 250 mg base/kg/day and the “NOAEL for maternal toxicity” value was 50 mg base/kg/day. In addition, in data set [1] (rabbit, in vivo), the survival result is listed as “not affected”. Moreover, the UGT1A1 inhibition entry at UGT1A1 is “inhibitor”. In addition, the BCRP inhibition entry at BCRP is “inhibits”. Further, the “genotoxicity, bone marrow micronucleus assay” value with rat bone marrow was “not genotoxic”. Further, the AUC(0-t) in data set [2] (read-out: maternal AUC0-24) came out at 20400 ng·h/mL. Besides, the Cmax in data set [2] (read-out: maternal Cmax) came to 1800 ng/mL. Besides, the UGT1A9 inhibition result on UGT1A9 is reported as “inhibitor”.

The term Cmax denotes the maximum level reached in the sampled fluid or tissue.
